Experimental data from PubChem BioAssay (NCI).
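GI50: concentration for 50% inhibition of growth. At the TGI there is no net growth.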

How the values were obtained:
Assay in all cases: NCI anticancer screen, dose series, 384-well format
CCRF-CEM leukemia = system: CCRF-CEM leukemia
OVCAR-3 ovarian = system: OVCAR-3 ovarian
786-0 renal = system: 786-0 renal
HT29 colon = system: HT29 colon
SW-620 colon = system: SW-620 colon
K-562 leukemia = system: K-562 leukemia
RXF 393 renal = system: RXF 393 renal
ACHN renal = system: ACHN renal
UO-31 renal = system: UO-31 renal
DU-145 prostate = system: DU-145 prostate
MDA-MB-468 breast = system: MDA-MB-468 breast
A549 NSCLC = system: A549 NSCLC
A498 renal = system: A498 renal
OVCAR-8 ovarian = system: OVCAR-8 ovarian
M14 melanoma = system: M14 melanoma
SNB-19 CNS = system: SNB-19 CNS
NCI-H226 lung = system: NCI-H226 lung
BT-549 breast = system: BT-549 breast
SK-OV-3 ovarian = system: SK-OV-3 ovarian
T-47D breast = system: T-47D breast
MCF7 breast = system: MCF7 breast
KM12 colon = system: KM12 colon
NCI-H522 lung = system: NCI-H522 lung
UACC-62 melanoma = system: UACC-62 melanoma
NCI-H23 lung = system: NCI-H23 lung
SF-295 CNS = system: SF-295 CNS
LOX IMVI melanoma = system: LOX IMVI melanoma
HOP-62 NSCLC = system: HOP-62 NSCLC
SF-539 CNS = system: SF-539 CNS
HCT-116 colon = system: HCT-116 colon
U251 glioblastoma = system: U251 glioblastoma
NCI/ADR-RES ovarian = system: NCI/ADR-RES ovarian
HCT-15 colon = system: HCT-15 colon
SN12C renal = system: SN12C renal
SNB-75 CNS = system: SNB-75 CNS
HL-60(TB) leukemia = system: HL-60(TB) leukemia
SF-268 CNS = system: SF-268 CNS
MOLT-4 leukemia = system: MOLT-4 leukemia
OVCAR-5 ovarian = system: OVCAR-5 ovarian
RPMI-8226 leukemia = system: RPMI-8226 leukemia
CAKI-1 renal = system: CAKI-1 renal

S=P(N1CC1)(N1CC1)N1CC1
GI50 (CCRF-CEM leukemia): 4.2 µM | TGI (CCRF-CEM leukemia): 11 µM | GI50 (OVCAR-3 ovarian): 43.3 µM | GI50 ([…]-0 renal): 32.7 µM | GI50 (HT29 colon): 59.4 µM | GI50 (SW-620 colon): 61.6 µM | GI50 (K-562 leukemia): 74 µM | GI50 (RXF 393 renal): 53.9 µM | GI50 (ACHN renal): 19.9 µM | TGI (ACHN renal): 63.4 µM | GI50 (UO-31 renal): 74.4 µM | GI50 (DU-145 prostate): 7.82 µM | TGI (DU-145 prostate): 98.9 µM | GI50 (MDA-MB-468 breast): 3.58 µM | TGI (MDA-MB-468 breast): 18.7 µM | GI50 (A549 NSCLC): 38.4 µM | GI50 (A498 renal): 39.4 µM | GI50 (OVCAR-8 ovarian): 28 µM | GI50 (M14 melanoma): 24.8 µM | GI50 (SNB-19 CNS): 41.6 µM | GI50 (NCI-H226 lung): 61.3 µM | GI50 (BT-549 breast): 29 µM | GI50 (SK-OV-3 ovarian): 29.8 µM | GI50 (T-47D breast): 93.6 µM | GI50 (MCF7 breast): 21.2 µM | GI50 (KM12 colon): 93.6 µM | GI50 (NCI-H522 lung): 45.9 µM | GI50 (UACC-62 melanoma): 11 µM | GI50 (NCI-H23 lung): 17.3 µM | TGI (NCI-H23 lung): 99.5 µM | GI50 (SF-295 CNS): 11.3 µM | TGI (SF-295 CNS): 31.3 µM | GI50 (LOX IMVI melanoma): 24.9 µM | GI50 (HOP-62 NSCLC): 8.65 µM | TGI (HOP-62 NSCLC): 31.8 µM | GI50 (SF-539 CNS): 20.2 µM | TGI (SF-539 CNS): 92.8 µM | GI50 (HCT-116 colon): 34.1 µM | GI50 (U251 glioblastoma): 20.7 µM | GI50 (NCI/ADR-RES ovarian): 30.1 µM | GI50 (HCT-15 colon): 33.7 µM | GI50 (SN12C renal): 9.52 µM | GI50 (SNB-75 CNS): 22 µM | GI50 (HL-60(TB) leukemia): 1.27 µM | TGI (HL-60(TB) leukemia): 2.85 µM | GI50 (SF-268 CNS): 9.43 µM | GI50 (MOLT-4 leukemia): 0.4 µM | TGI (MOLT-4 leukemia): 1.49 µM | GI50 (OVCAR-5 ovarian): 70.4 µM | GI50 (RPMI-8226 leukemia): 12 µM | TGI (RPMI-8226 leukemia): 36.4 µM | GI50 (CAKI-1 renal): 17.8 µM
